According to patent US8778927B2, “Smoothened antagonism for the treatment of hedgehog pathway-related disorders” (Novartis AG, priority 2008, dated 2014):

Assays:
[1] = tested on: Ptch+/−Hic+/− medulloblastoma allograft; experiment: Ptch+/−Hic+/− medulloblastoma allograft model, continuous dosing; assay type: in vivo, mouse; conditions: day 47
Excerpt: (§1) Mouse medulloblastoma cells (1.0−5.0×10^6), dissociated directly from tumor fragments originally derived from spontaneously arising medulloblastomas in Ptch+/−p53−/−, Ptch+/−Hic+/− or Ptch+/− mice, were inoculated subcutaneously into the right flank of Harlan nu/nu mice. Treatment was initiated approximately 7-10 days post implantation. Animals were randomized into treatment groups with similar mean tumor volumes that ranged from approximately 250-300 mm3. Tumor volumes (mm3) and body weights (g) were recorded two or three times per week from all groups for analysis. Dose was body weight adjusted at time of dosing. Comparisons between treatment groups was performed using a non-parametric Kruskal-Wallis/Wilcoxon Rank Sum Test.
(§2) Tumors were calipered in two dimensions, and the volumes were calculated using the formula: (length×width2)/2, where length is the longer of the two measurements and width is the shorter one. Percent treatment/control (% T/C) values were calculated using the following formula: % T/C=100×ΔTf−i/ΔCf−i if ΔTf−i>0, % T/T0=100×ΔTf−i/T0 if ΔTf−i<0 (regression). A partial responder (PR) was defined as an animal whose tumor was less than 50% of the initial tumor volume by the end of the study. An animal with no palpable tumor by the end of study is defined as a complete responder (CR).
Treatments started on day 7 post implantation (5 million cells/animal). Compound 1 was administered po at 5 mg/kg bid, 10 mg/kg bid, 20 mg/kg qd, 20 mg/kg bid, 40 mg/kg bid and 80 mg/kg bid for the length of study. Compound 2 was administered at 100 mg/kg bid for the length of study. Vehicle control of Compound 1 was 0.5% methylcellulose 0.5% Tween 80 in water. The initial group size consisted of 8 animals. The vehicle group was taken down 10 days after treatment (tumors greater than 10% of mouse body weight).
Sustained regressions listed in the Table 1 represent number of complete responses still present at the end of study on day 47.
Two additional Smo inhibitors, Compound 3 and Compound 4 were evaluated in follow-up studies in the Ptch+/−Hic+/− model upon continous dosing.

[2] = tested on: Ptch+/− medulloblastoma allograft; experiment: Ptch+/− medulloblastoma allograft model, continuous dosing; assay type: in vivo, mouse; conditions: day 48
Excerpt: as §1, §2
Treatments started on day 7 post implantation (5 million cells/animal). Compound 1 was administered po at 10 mg/kg qd, 20 mg/kg qd, 40 mg/kg qd, 80 mg/kg qd and 160 mg/kg qd for the length of study. Compound 2 was administered at 100 mg/kg bid for the length of study. Vehicle control of Compound 1 was 0.5% methylcellulose 0.5% Tween 80 in water. The initial group size consisted of 8 animals. The vehicle group was taken down 7 days after treatment (tumors greater than 10% of mouse body weight). Similar resistance was seen to that observed with the Ptc+/−Hic+/− model, with a subset of the complete responders growing back and others showing complete regression (Table 2). Sustained regression listed in Table 2 represent number of complete regressions still present at the end of study on day 48.

[3] = tested on: sensitive medulloblastoma tumor cells; experiment: ex-vivo medulloblastoma proliferation assay (3H thymidine, 48 h), sensitive tumor cells; assay type: cell-based; conditions: Mus musculus
Protocol: (§3) The effect of statins (e.g., simvastatin, flustatin) on the proliferation of medulloblastoma cells derived from sensitive and resistant Ptch+/− cells was evaluated by using an “ex-vivo medulloblastoma proliferation assay.” Using Ptch+/−p53−/−, Ptch+/−Hic+/− or Ptch+/− medulloblastoma tumors freshly harvested from allografted nude mice, we have developed a short-term 48 h proliferation assay that enables us to assess the in vitro potency of Smo inhibitors. The read-out for proliferation uses incorporation of 3H thymidine. The assay reflects the in vivo sensitivity of tumor cells to Compound 1.
(§4) The effect of PI3K inhibitors (e.g., compounds such as Compound A) on the proliferation of medulloblastoma cells derived from sensitive and resistant medulloblastoma cells was evaluated by using an “ex-vivo medulloblastoma proliferation assay,” as described above.

[4] = tested on: resistant medulloblastoma tumor cells; experiment: ex-vivo medulloblastoma proliferation assay (3H thymidine, 48 h), resistant tumor cells; assay type: cell-based, mouse; conditions: Mus musculus
Protocol: as §3, §4

[5] = tested on: Hedgehog signaling pathway genes; experiment: Affymetrix mRNA profiling of tumors, Hedgehog pathway genes; assay type: in vivo, mouse
Protocol: (§5) In order to characterize changes in gene expression in sensitive tumors compared to resistant tumors (both of which terms are defined herein), RNA was isolated from sensitive tumors treated with vehicle or Compound 1 for 4 (single dose), 16 (single dose) and 48 hours (three doses) as well as from resistant tumors (that initially had regressed in the presence of Compound 1 (day 13) but then regrew in the presence of drug as described above). Three tumors were analyzed per treatment group: The sensitive tumor group comprises tumors treated with 20 mg/kg of Compound 1 for 4 hours; 16 hours; and 48 hours. The resistant tumor group comprises tumors treated with 10 mg/kg bid and 80 mg/kg bid of Compound 1 for 26 days. mRNA expression in tumor samples was analyzed by Affymetrix profiling. The expression data were analyzed using the GeneGo pathway program, which groups data according to signal transduction pathways.

[6] = tested on: Cholesterol biosynthesis pathway genes; experiment: Affymetrix mRNA profiling of tumors, cholesterol biosynthesis genes; assay type: in vivo, mouse; conditions: sensitive and resistant tumors
Protocol: as §5

PI3K pathway genes = experiment: Affymetrix mRNA profiling of tumors, PI3K pathway genes; assay type: in vivo, mouse
Protocol: as §5

[7] = tested on: Ptch+/−Hic+/− medulloblastoma allograft; experiment: combination of Smo inhibitor and PI3K inhibitor in Ptch+/−Hic+/− medulloblastoma allograft model; assay type: in vivo, mouse
Excerpt: Mouse medulloblastoma cells (1.0-5.0×10^6), dissociated directly from tumor fragments originally derived from spontaneously arising medulloblastomas in Ptch+/-p53-/-, Ptch+/-Hic+/- or Ptch+/- mice, were inoculated subcutaneously into the right flank of Harlan nu/nu mice. Treatment was initiated approximately 7-10 days post implantation. Animals were randomized into treatment groups with similar mean tumor volumes that ranged from approximately 250-300 mm3. Tumor volumes (mm3) and body weights (g) were recorded two or three times per week from all groups for analysis. Dose was body weight adjusted at time of dosing. Comparisons between treatment groups was performed using a non-parametric Kruskal-Wallis/Wilcoxon Rank Sum Test. Tumors were calipered in two dimensions, and the volumes were calculated using the formula: (length×width2)/2, where length is the longer of the two measurements and width is the shorter one. […] A partial responder (PR) was defined as an animal whose tumor was less than 50% of the initial tumor volume by the end of the study. An animal with no palpable tumor by the end of study is defined as a complete responder (CR). Next, a combination of Compound 1 and Compound A was explored in the Ptch+/-Hic+/- medulloblastoma allograft model. […] Animals treated with vehicle control and with compound A had to be sacrificed around day 20 and 25, respectively, because their tumor volume reached 1500 mm3. […] Similar results were obtained for animals treated with Compound 1 alone for the first 10 days, followed by single agent treatment with Compound A (data not shown). […] Next, a combination of Compound 1 and Compound B was explored in the Ptch+/-Hic+/- medulloblastoma allograft model. […] Animals treated with vehicle control and with compound B reached the endpoint around day 12 to 15, respectively, because their tumor volume reached 700 mm3.

Cc1c(C(=O)Nc2ccc(N3C[C@@H](C)O[C@@H](C)C3)nc2)cccc1-c1ccc(OC(F)(F)F)cc1 [Compound 1, 2-Methyl-4′-trifluoromethoxy-biphenyl-3-carboxylic acid [6-(cis-2,6-dimethyl-morpholin-4-yl)-pyridin-3-yl]-amide]
sustained regressions (complete responses still present at end of study) ([1]; 5 mg/kg bid po): 0/8
sustained regressions (complete responses still present at end of study) ([1]; 10 mg/kg bid po): 1/8
sustained regressions (complete responses still present at end of study) ([1]; 20 mg/kg bid po): 7/8
sustained regressions (complete responses still present at end of study) ([1]; 20 mg/kg qd po): 0/8
sustained regressions (complete responses still present at end of study) ([1]; 40 mg/kg bid po): 3/8
sustained regressions (complete responses still present at end of study) ([1]; 80 mg/kg bid po): 6/8
sustained regressions (complete regressions still present at end of study) ([2]; 10 mg/kg qd po): 0/8
sustained regressions (complete regressions still present at end of study) ([2]; 20 mg/kg qd po): 1/8
sustained regressions (complete regressions still present at end of study) ([2]; 40 mg/kg qd po): 1/8
sustained regressions (complete regressions still present at end of study) ([2]; 80 mg/kg qd po): 4/8
sustained regressions (complete regressions still present at end of study) ([2]; 160 mg/kg qd po): 5/8
IC50 ([3]; Sensitive tumor, Table 3): 3 nM
IC50 ([3]; ptch+/− Hic+/−, sensitive, Table 4): 2 nM
IC50 ([3]; sensitive cells, summary of Table 4): 2 to 4 nM
IC50 ([3]; sensitive tumor cells, text b482): 4 nM
IC50 ([4]; Resistant tumor, Table 3): > 20000 nM
IC50 ([4]; ptch+/− Hic+/−, Resistant, Table 4): > 20000 nM
IC50 ([4]; resistant tumors, summary of Table 4): > 20000 nM
IC50 ([4]; resistant tumors, text b482): > 20000 nM
expression of Hedgehog pathway genes ([5]; resistant tumors, 10 and 80 mg/kg bid, 26 days): no longer sufficiently inhibited the expression of Hedgehog pathway genes
expression of genes indicative of Hedgehog signaling pathway activity ([5]; sensitive tumors, 20 mg/kg, 4 h, 16 h, 48 h): suppressed in sensitive tumors in a time-dependent manner
expression of genes of the Cholesterol biosynthesis pathway [6]: A similar expression pattern was observed
PI3K pathway activity (gene expression) (PI3K pathway genes; resistant tumors compared to sensitive tumors): upregulation of PI3K pathway activity was observed in resistant tumors
expression of genes indicative of PI3K pathway activity (PI3K pathway genes; sensitive tumors, 4, 16 and 48 h): No changes in gene expression were detected
effect on tumor growth ([7]; 40 mg/kg qd, FIG. 6A): initially induced regression but tumors started to regrow
time to endpoint (tumor volume >1500 mm3) ([7]; 40 mg/kg qd, FIG. 6B): significantly prolonged
effect on tumor growth ([7]; 80 mg/kg qd, FIG. 7A): initially induced regression but tumors started to regrow
time to endpoint (tumor volume >700 mm3) ([7]; 80 mg/kg qd, FIG. 7B): significantly prolonged
